Measurements from patent US20240381872A1, “SUBSTITUTED 2,3-DIHYDRO[1,3]THIAZOLO[4,5-B]PYRIDINES, SALTS THEREOF AND THEIR USE AS HERBICIDALLY ACTIVE SUBSTANCES” (BAYER AKTIENGESELLSCHAFT, priority 2021, published 2024).

Assays:
Assay type in all cases: in vivo
[1] = tested on: Alopecurus myosuroides (ALOMY); test: Herbicidal pre-emergence action, section C (Table C2); details: Alopecurus myosuroides, pre-emergence, 504 h; application rate 320 g/ha; visual grading after ca. 3 weeks vs untreated controls; read-out: pre-emergence activity against ALOMY in %
Description: (§1) Seeds of mono- and dicotyledonous weed plants and crop plants were sown, in plastic or organic planting pots, in sandy loam and covered with soil. The compounds according to the invention, formulated in the form of wettable powders (WP) or as emulsifiable concentrates (EC), were applied to the surface of the covering soil as aqueous suspension or emulsion, with the addition of 0.5% of an additive, at an application rate of 600 l of water/ha (converted). Following treatment, the pots were placed in a greenhouse and kept under optimum growth conditions for the test plants. The visual grading of the damage to the test plants was carried out after ca. 3 weeks in comparison to untreated controls (herbicidal effect in percent (%): 100% effect=plants have died off, 0% effect=as control plants).

[2] = tested on: Echinochloa crus-galli (ECHCG); test: Herbicidal pre-emergence action, section C (Table C3); details: Echinochloa crus-galli, pre-emergence, 504 h; application rate 320 g/ha; visual grading after ca. 3 weeks vs untreated controls; read-out: pre-emergence activity against ECHCG in %
Description: as §1

Setaria viridis (SETVI) = test: Herbicidal pre-emergence action, section C (Table C8); details: Setaria viridis, pre-emergence, 504 h; application rate 320 g/ha; visual grading after ca. 3 weeks; read-out: pre-emergence activity against SETVI in %
Description: as §1

[3] = tested on: Amaranthus retroflexus (AMARE); test: Herbicidal pre-emergence action, section C (Table C11); details: visual grading after ca. 3 weeks
Description: as §1

Zea mays (ZEAMX) [4] = test: Pre-emergence effects on crop plants, section D (Table D1); details: visual grading after ca. 3 weeks
Description: (§2) Seeds of mono- and dicotyledonous weed plants and crop plants were sown, in plastic or organic planting pots, in sandy loam and covered with soil. The compounds according to the invention, formulated in the form of wettable powders (WP) or as emulsifiable concentrates (EC), were applied to the surface of the covering soil as aqueous suspension or emulsion, with the addition of 0.5% of an additive, at an application rate of 600 l of water/ha (converted).
(§3) Following treatment, the pots were placed in a greenhouse and kept under optimum growth conditions for the test plants. The visual grading of the damage to the test plants was carried out after ca. 3 weeks in comparison to untreated controls (herbicidal effect in percent (%): 100% effect=plants have died off, 0% effect=as control plants).
(§4) Tables D1 to D5 below show the effects of various compounds of the general formula (I) according to Table 1 on various crop plants and an application rate corresponding to 320 g/ha or below obtained by the experimental procedure mentioned above in Biological Examples, Section C.

[5] = tested on: Triticum aestivum (TRZAS); test: Pre-emergence effects on crop plants, section D (Table D2); details: visual grading after ca. 3 weeks
Method in brief: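 Read-out: visual percent injury versus untreated controls at ca. 3 weeks (0% as control, 100% dead). Treatment: aqueous WP/EC suspension or emulsion with 0.5% additive, 600 l/ha, on soil covering seeds in sandy loam, at 320 g/ha or below, under optimum greenhouse conditions.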

Oryza sativa (ORYZA) [6] = test: Pre-emergence effects on crop plants, section D (Table D3); details: visual grading after ca. 3 weeks
Description: as §2, §3, §4

Brassica napus (BRSNW) [7] = test: Pre-emergence effects on crop plants, section D (Table D5); details: visual grading after ca. 3 weeks
Description: as §2, §3, §4

Veronica persica (VERPE) [8] = test: Herbicidal post-emergence action, section E (Table E9); details: Veronica persica, 504 h, application rate 320 g/ha, visual assessment ca. 3 weeks after spraying, read-out: post-emergence activity against VERPE in %
Description: (§5) Seeds of mono- and dicotyledonous weed plants and crop plants were sown, in plastic or organic planting pots, in sandy loam, covered with soil and grown in a greenhouse under controlled growth conditions. 2 to 3 weeks after sowing, the test plants were sprayed in the single-leaf stage. The compounds according to the invention, formulated in form of wettable powders (WP) or as emulsifiable concentrates (EC), were sprayed onto the green plant parts as aqueous suspension or emulsion, with the addition of 0.5% of an additive, at an application rate of 600 l of water/ha (converted). The test plants were placed in the greenhouse for ca. 3 weeks under optimum growth conditions, and then the effect of the preparations was assessed visually in comparison with untreated controls (herbicidal effect in percent (%): 100% effect=plants have died off, 0% effect=as control plants).

Zea mays (ZEAMX) [9] = test: Post-emergence effects on crop plants, section F (Table F1)
Method in brief: (§6)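 Crop seeds were sown in sandy loam in pots and greenhouse-grown; at the single-leaf stage, 2 to 3 weeks after sowing, plants were sprayed with WP or EC formulations plus 0.5% additive at 600 l water/ha, 320 g/ha or below. Damage was scored visually about 3 weeks later versus untreated controls (0–100%).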

[10] = tested on: Triticum aestivum (TRZAS); test: Post-emergence effects on crop plants, section F (Table F2)
Method in brief: as §6

Oryza sativa (ORYZA) [11] = test: Post-emergence effects on crop plants, section F (Table F3); details: Oryza sativa, 504 h, read-out: post-emergence activity against ORYZA in %
Description: as §5, with “plants). Tables F1 to F4 below show the effects of selected compounds of the general formula (I) according to Table 1 on various crop plants and an application rate corresponding to 320 g/ha or below obtained by the experimental procedure mentioned above.” for “plants).”

Glycine max (GLXMA) [12] = test: Post-emergence effects on crop plants, section F (Table F4)
Method in brief: as §6

Brassica napus (BRSNW) [13] = test: Post-emergence effects on crop plants, section F (Table F5); details: application rate 80 g/ha; for crop plant damage (phytotoxicity) in % at 80 g/ha: Brassica napus, 504 h, read-out: post-emergence activity against BRSNW in %
Description: as §5, with “plants). Tables F1 to F4 below show the effects of selected compounds of the general formula (I) according to Table 1 on various crop plants and an application rate corresponding to 320 g/ha or below obtained by the experimental procedure mentioned above.” for “plants).”

Glycine max (GLXMA) [14] = test: Pre-emergence effects on crop plants, section D (Table D4); details: visual grading after ca. 3 weeks
Description: as §2, §3, §4

Veronica persica (VERPE) [15] = test: Herbicidal pre-emergence action, section C (Table C10); details: application rate 320 g/ha, visual grading after ca. 3 weeks
Description: as §1

[16] = tested on: Digitaria sanguinalis (DIGSA); test: Herbicidal pre-emergence action, section C (Table C12); details: Digitaria sanguinalis, pre-emergence, 504 h; application rate 320 g/ha; visual grading after ca. 3 weeks; read-out: pre-emergence activity against DIGSA in %
Description: as §1

Kochia scoparia (KCHSC) [17] = test: Herbicidal pre-emergence action, section C (Table C13); details: application rate 320 g/ha, visual grading after ca. 3 weeks
Description: as §1

[18] = tested on: Polygonum convolvulus (POLCO); test: Herbicidal post-emergence action, section E (Table E7); details: Fallopia convolvulus, 504 h, application rate 320 g/ha, visual assessment ca. 3 weeks after spraying, read-out: post-emergence activity against POLCO in %
Description: as §5

Kochia scoparia (KCHSC) [19] = test: Herbicidal post-emergence action, section E (Table E11); details: visual assessment ca. 3 weeks after spraying
Description: as §5

[20] = tested on: Polygonum convolvulus (POLCO); test: Herbicidal pre-emergence action, section C (Table C7); details: application rate 320 g/ha; visual grading after ca. 3 weeks
Description: as §1

[21] = Glycine max, 504 h, application rate 320 g/ha, read-out: post-emergence activity against GLXMA in %
[22] = Zea mays, 504 h, application rate 320 g/ha, read-out: post-emergence activity against ZEAMX in %
[23] = Triticum aestivum, 504 h, application rate 320 g/ha, read-out: post-emergence activity against TRZAS in %
[24] = crop plant damage, application rate 320 g/ha

O=C(C1CCCC1)N1CSc2cc(Br)c(-c3ccccc3F)nc21 [Example I-021, [6-bromo-5-(2-fluorophenyl)[1,3]thiazolo[4,5-b]pyridin-3(2H)-yl](cyclopentyl)methanone]
pest or weed control at 320 g/ha [1]: 80%
pest or weed control at 320 g/ha [2]: 90%
pest or weed control at 320 g/ha (Setaria viridis (SETVI)): 80%
pest or weed control at 80 g/ha ([3]; Amaranthus retroflexus, pre-emergence, 504 h, application rate 80 g/ha, read-out: pre-emergence activity against AMARE in %): 100%
pre-emergence activity against ZEAMX in % (crop plant damage) (Zea mays (ZEAMX) [4]; application rate 80 g/ha): 0%
pre-emergence activity against TRZAS in % (crop plant damage) ([5]; application rate 320 g/ha): 0%
pre-emergence activity against ORYZA in % (crop plant damage) (Oryza sativa (ORYZA) [6]; application rate 80 g/ha): 10%
pre-emergence activity against BRSNW in % (crop plant damage) (Brassica napus (BRSNW) [7]; application rate 320 g/ha): 0%
pest or weed control at 320 g/ha (Veronica persica (VERPE) [8]): 80%
percent crop plant damage (phytotoxicity) on Zea mays, post-emergence at 80 g/ha (Zea mays (ZEAMX) [9]; Zea mays, 504 h, application rate 80 g/ha, read-out: post-emergence activity against ZEAMX in %): 10%
percent crop plant damage (wheat, post-emergence) at 80 g/ha ([10]; Triticum aestivum, 504 h, application rate 80 g/ha, read-out: post-emergence activity against TRZAS in %): 0%
percent crop plant damage at 80 g/ha (Oryza sativa (ORYZA) [11]; application rate 80 g/ha): 10%
percent crop plant damage at 320 g/ha (Glycine max (GLXMA) [12]; [21]): 20%
crop plant damage (phytotoxicity) in % at 80 g/ha (Brassica napus (BRSNW) [13]): 10%

O=C(c1ccccc1C(F)(F)F)N1CSc2cc(Br)c(-c3ccccc3Cl)nc21 [Example I-061, [6-bromo-5-(2-chlorophenyl)[1,3]thiazolo[4,5-b]pyridin-3(2H)-yl][2-(trifluoromethyl)-phenyl]methanone]
pre-emergence activity against ZEAMX in % (crop plant damage) (Zea mays (ZEAMX) [4]; application rate 320 g/ha): 0%
pre-emergence activity against TRZAS in % (crop plant damage) ([5]; application rate 320 g/ha): 0%
pre-emergence activity against ORYZA in % (crop plant damage) (Oryza sativa (ORYZA) [6]; application rate 320 g/ha): 20%
pre-emergence activity against GLXMA in % (crop plant damage) (Glycine max (GLXMA) [14]; application rate 320 g/ha): 0%
pre-emergence activity against BRSNW in % (crop plant damage) (Brassica napus (BRSNW) [7]; application rate 320 g/ha): 20%
percent crop plant damage (phytotoxicity) on Zea mays, post-emergence at 320 g/ha (Zea mays (ZEAMX) [9]; [22]): 20%
percent crop plant damage (wheat, post-emergence) at 320 g/ha [10, 23]: 0%
percent crop plant damage at 320 g/ha (Oryza sativa (ORYZA) [11]; application rate 320 g/ha): 0%
percent crop plant damage at 320 g/ha (Glycine max (GLXMA) [12]; [21]): 0%
crop plant damage (phytotoxicity) in % at 80 g/ha (Brassica napus (BRSNW) [13]): 0%

CS(=O)(=O)N1C[S+]([O-])c2cc(Br)c(-c3ccccc3Cl)nc21 (stereo not shown) [Example I-133]
pest or weed control at 320 g/ha [2]: 100%
pest or weed control at 320 g/ha (Setaria viridis (SETVI)): 100%
pest or weed control at 320 g/ha (Veronica persica (VERPE) [15]; Veronica persica, pre-emergence, 504 h, read-out: pre-emergence activity against VERPE in %): 80%
pest or weed control at 320 g/ha [16]: 100%
pest or weed control at 320 g/ha (Kochia scoparia (KCHSC) [17]; Bassia scoparia, pre-emergence, 504 h, read-out: pre-emergence activity against KCHSC in %): 90%
pre-emergence activity against ZEAMX in % (crop plant damage) (Zea mays (ZEAMX) [4]; application rate 320 g/ha): 20%
pre-emergence activity against TRZAS in % (crop plant damage) ([5]; application rate 80 g/ha): 0%
pre-emergence activity against GLXMA in % (crop plant damage) (Glycine max (GLXMA) [14]; application rate 80 g/ha): 20%
pest or weed control at 320 g/ha [18]: 80%
pest or weed control at 320 g/ha (Veronica persica (VERPE) [8]): 80%
pest or weed control at 80 g/ha (Kochia scoparia (KCHSC) [19]; Bassia scoparia, 504 h, application rate 80 g/ha, read-out: post-emergence activity against KCHSC in %): 90%
percent crop plant damage (phytotoxicity) on Zea mays, post-emergence at 320 g/ha (Zea mays (ZEAMX) [9]; [22]): 0%
percent crop plant damage (wheat, post-emergence) at 320 g/ha [10, 23]: 0%
percent crop plant damage at 80 g/ha (Glycine max (GLXMA) [12]; Glycine max, 504 h, application rate 80 g/ha, read-out: post-emergence activity against GLXMA in %): 0%
crop plant damage (phytotoxicity) in % at 80 g/ha (Brassica napus (BRSNW) [13]): 0%

COCCOCCOCC(=O)N1CSc2cc(Br)c(-c3cccc(F)c3F)nc21 [Example I-148]
pre-emergence activity against POLCO in % [20]: 80%
pre-emergence activity against VERPE in % (Veronica persica (VERPE) [15]): 80%
pre-emergence activity against AMARE in % ([3]; application rate 320 g/ha): 90%
pre-emergence activity against KCHSC in % (Kochia scoparia (KCHSC) [17]): 90%
pre-emergence activity against ZEAMX in % (crop plant damage) (Zea mays (ZEAMX) [4]; application rate 80 g/ha): 0%
pre-emergence activity against TRZAS in % (crop plant damage) ([5]; application rate 320 g/ha): 0%
pre-emergence activity against GLXMA in % (crop plant damage) (Glycine max (GLXMA) [14]; application rate 80 g/ha): 0%
pre-emergence activity against BRSNW in % (crop plant damage) (Brassica napus (BRSNW) [7]; application rate 80 g/ha): 0%
post-emergence activity against KCHSC in % (Kochia scoparia (KCHSC) [19]; application rate 320 g/ha): 80%
post-emergence activity against ZEAMX in % (Zea mays (ZEAMX) [9]; [24]): 0%
post-emergence activity against TRZAS in % [10, 24]: 0%
post-emergence activity against GLXMA in % (Glycine max (GLXMA) [12]; [24]): 0%
post-emergence activity against BRSNW in % (Brassica napus (BRSNW) [13]; crop plant damage): 20%
